Reference: patent publication US7943759B2, “3-β-D-ribofuranosylthiazolo[4-5-d]pyrimidine nucleosides and uses thereof” (Anadys Pharmaceuticals, Inc., priority 2001, dated 2011)
Structures can show the parent of a compound that is named as a salt. Where two headings read alike, the source gives them in different places. Blank lines part the entries; values can stand above or below the compound they belong to.

Columns and labels:
Caco-2 cells = conditions: human
Procedure: In vitro drug transport assays using differentiated and P-glycoprotein-expressing Caco2 cell monolayers are widely used to predict absorption rates of candidate drug compounds across the intestinal epithelial cell barrier. See, e.g., Hilgers, A. R. et al., Pharm.
Caco-2 cells (obtained from ATCC) are grown to confluency on permeable membranes in chambers allowing access to both the apical and basolateral sides of the membrane. The intact nature of the resulting cellular membrane is assessed using transepithelial electrical resistance. The test compound is added at a known concentration to the apical side of the membrane and the rate of appearance of the compound on the basolateral side of the membrane is assessed by analysis using either HPLC or LC-MS/MS.

[1] = tested on: Cynomolgus monkey hepatocytes; conditions: 2 h, 10 μm/ml
Procedure: Hepatocyes often are used to assess the degree to which a compound may be transformed in the body of an animal, and it is known that such transformations may vary with hepatocytes from different species in a way that reflects metabolism in the whole animal.
Cynomolgus monkey hepatocytes were purchased from a commercial supplier and used within 48 hours of preparation. Compounds were prepared in culture media at a concentration of 10 μm/ml and incubated in a standard system with 1,000,000 viable hepatocytes per ml for 2 hours at 37 degrees. The extent of conversion at the end of the incubation period was assessed by measuring 1 by LC-MS/MS.

[2] = Systemic exposure to isatoribine after oral administration to beagle dogs (plasma HPLC-MS/MS); format: in vivo; conditions: at both 10 and 50 mg/kg dose
Procedure: The effect of a prodrug (val-isatoribine, 3) on the systemic exposure to isatoribine (1) after oral administration to beagle dogs was investigated. Isatoribine was prepared in sodium bicarbonate solution.
Four male and four female adult beagle dogs weighing between 15 to 27 kg and approximately 1-2 years old were used at the beginning of the study. The animals were divided into 2 groups of 2 males and 2 females each. The test material was administered by gavage on Days 1 and 8, allowing a 7-day washout period between administrations. Blood samples (2 mL) were collected from each animal at predose, 15, 30 minutes, 1, 2, 3, 4, 6, 8 and 10 hours into lithium heparin tubes after each dosing. The plasma was frozen at −70° C. until analysis. The plasma was analyzed for isatoribine by an HPLC-MS/MS assay.
The ratios for the key pharmacokinetic parameters defining the maximum concentration (Cmax) and total exposure as measured by the area under the time-concentration curve (AUC) for the prodrug and the bicarbonate solution at the 50 mg/kg dose are summarized in Table 6.

[3] = Toxicology studies in dogs: GI tolerance (emesis, loose stool, GI lesions) and isatoribine exposure
Procedure: (§1) Formal toxicology studies of intravenously administered isatoribine and orally administered isatoribine and val-isatoribine were conducted in beagle dogs.
(§2) In each case the compound was administered as a solution, by gavage or by intravenous infusion. Multiple parameters were assessed, as is customary in a toxicology study. In the studies providing higher potential exposure to isatoribine, the plasma concentration of isatoribine was assessed by a LC/MS method.

[4] = tested on: Interferon Alpha (Mu-IFN-α); experiment: Murine interferon alpha (Mu-IFN-α) in plasma of mice after oral dosing; format: in vivo; conditions: for mice with detectable interferon in plasma, of the mice used: mice of Tables 1, 2 and 3, oral dosing
Description: The normal mouse provides a useful system for the assessment of the degree to which the inventions described herein provide material improvement in the oral delivery of 1 (isatoribine). Not only can one measure the plasma concentrations of isatoribine arising from oral administration of the said prodrug(s) but also the extensive immunological research conducted in the mouse has provided reagents suitable for measuring the levels of interferon alpha, a cytokine of interest reflecting one of the desired biologic activities of isatoribine. […] Table 1 records the results of an assay for murine interferon alpha in the plasma of mice that were dosed two times with isatoribine, formulated in bicarbonate, at a level of 50 mg/kg by the oral route. […] Table 2 records the results of assays for murine interferon alpha in the plasma of mice that first were dosed with bicarbonate and then four hours later were dosed orally with isatoribine, formulated in bicarbonate, at a level of 50 mg/kg. Interferon was reported in the plasma from four mice, including two that had received the bicarbonate vehicle dose. […] Table 3 records the results of assays for murine interferon alpha in the plasma of mice that were dosed orally with val-isatoribine, dissolved in bicarbonate, at a dose that is equivalent to 50/mg/kg of isatoribine on a molar basis. […] Interferon was detected in all mice assayed at a given time point, indicating the reliability of the effect following val-isatoribine administration. […] The data tabulated in Tables 1, 2, and 3 may be also considered from the point of view of the incidence of measurable interferon levels.

[5] = dog, in vivo, iv, 12.5 mg/kg
Procedure: as §1, §2

[6] = cited from earlier work
[7] = oral val-isatoribine, 8.1 mg/kg isatoribine equivalent applied dose
[8] = oral val-isatoribine, 16 mg/kg isatoribine equivalent applied dose
[9] = oral val-isatoribine, 32 mg/kg isatoribine equivalent applied dose
[10] = oral val-isatoribine, 64 mg/kg isatoribine equivalent applied dose
[11] = dogs, oral isatoribine, 2.5 mg/kg isatoribine equivalent applied dose
[12] = IV isatoribine, 25 mg/kg applied dose

Compound: CC(=O)O[C@@H]1[C@H](OC(C)=O)[C@@H](CO)O[C@H]1n1c(=O)sc2cnc(N)nc21 [Compound 89, 5-Amino-3-(2′,3′-di-O-acetyl-β-D-ribofuranosyl)-3H-thiazolo[4,5-d]pyrimidin-2-one]
Caco2 transport compared with 79 (result in words) (Caco-2 cells): significantly improved transport over 79
Monkey Hepatocytes [1]: 45%
conversion to 1 compared with 79 (result in words) [1]: more extensively converted to 1 than is 79

Compound: Nc1ncc2sc(=O)n([C@@H]3O[C@H](CO)[C@@H](O)[C@H]3O)c2n1 [Compound 79, 5-Amino-3-β-D-ribofuranosyl-3H-thiazolo-[4,5-d]pyrimidin-2-one]
melting point: 220 °C (dec.)
Monkey Hepatocytes [1]: 10%

Compound: COc1nc(N)nc2c1sc(=O)n2[C@@H]1O[C@H](CO)[C@@H](O)[C@H]1O [Compound 14, 5-Amino-3-β-D-ribofuranosyl-7-methoxy-thiazolo[4,5-d]pyrimidin-2-one]
melting point: > 160 °C (dec.)

Compound: Nc1nc(NC2CCCC2)c2sc(=O)n([C@@H]3O[C@H](CO)[C@@H](O)[C@H]3O)c2n1 [Compound 22, 5-Amino-7-cyclopentylamino-3-β-D-ribofuranosylthiazolo[4,5-d]pyrimidin-2-one]
melting point: > 108 °C (dec.)

Compound: Nc1nc2c(sc(=O)n2[C@@H]2O[C@H](CO)[C@@H](O)[C@H]2O)c(=O)[nH]1 [Compound 1, 5-amino-3-β-D-ribofuranosylthiazolo[4,5-d]pyrimidine-2,7-dione, reference compound]
Emesis or loose stool [5]: Neg.
GI lesions or irritation [5]: Neg.
Emesis or loose stool [6, 11]: Neg.
GI lesions or irritation [6, 11]: Neg.
GI lesions or irritation ([6]; dogs, oral isatoribine, 5 mg/kg isatoribine equivalent applied dose): Neg.
dogs with multiple, scattered red lesions on the intestinal mucosa (gross histopathologic evaluation) ([6]; orally administered isatoribine at 10 mg/kg): four of eight dogs
Emesis or loose stool [3, 12]: Neg.
GI lesions or irritation [3, 12]: Neg.
GI lesions or irritation ([3]; IV isatoribine, 50 mg/kg applied dose): Neg.
GI lesions or irritation ([3]; IV isatoribine, 100 mg/kg applied dose): Neg.
GI tract lesions at necropsy or histopathologic evaluation (result in words) ([3]; intravenously administered isatoribine): No lesions were seen in the GI tract
interferon in plasma (result in words) ([4]; mice dosed two times with isatoribine in bicarbonate, 50 mg/kg oral, interval of four hours): no interferon was measurable
mice with detectable interferon in plasma, of the mice used [4]: 4 of the 114

Compound: CN(C)c1nc(N)nc2c1sc(=O)n2[C@@H]1O[C@H](CO)[C@@H](O)[C@H]1O [Compound 20, 5-Amino-7-dimethylamino-3-β-D-ribofuranosylthiazolo[4,5-d]pyrimidin-2-one]
melting point: > 112 °C

Compound: CC(=O)OC[C@H]1O[C@@H](n2c(=O)sc3cnc(N)nc32)[C@H](OC(C)=O)[C@@H]1OC(C)=O [Compound 78, 5-Amino-3-(2′,3′,5′-tri-O-acetyl-β-D-ribofuranosyl)-3H-thiazolo[4,5-d]pyrimidin-2-one]
Caco2 transport compared with 79 (result in words) (Caco-2 cells): significantly improved transport over 79
Monkey Hepatocytes [1]: 20%
conversion to 1 compared with 79 (result in words) [1]: more extensively converted to 1 than is 79

Compound: CNc1nc(N)nc2c1sc(=O)n2[C@@H]1O[C@H](CO)[C@@H](O)[C@H]1O [Compound 18]
melting point: > 108 °C

Compound: Nc1nc(N2CCCC2)c2sc(=O)n([C@@H]3O[C@H](CO)[C@@H](O)[C@H]3O)c2n1 [Compound 23, 5-Amino-7-pyrrolidino-3-β-D-ribofuranosylthiazolo[4,5-d]pyrimidin-2-one]
melting point: > 112.4 °C (dec.)

The next lines start with results.

melting point: 166 to 168 °C (dec.)
Compound: CC(C)[C@H](N)C(=O)OC[C@H]1O[C@@H](n2c(=O)sc3c(O)nc(N)nc32)[C@H](O)[C@@H]1O (as salt: hydrochloride) [Compound 3, 5-Amino-3-(5′-O-L-valinyl-β-D-ribofuranosyl)thiazolo[4,5-d]pyrimidine-2,7-dione Dihydrochloride]

maximum concentrations of isatoribine after oral dosing compared to isatoribine itself [2]: at least doubled
Compound: CC(C)[C@H](N)C(=O)OC[C@H]1O[C@@H](n2c(=O)sc3c(O)nc(N)nc32)[C@H](O)[C@@H]1O [Compound 3, 5-Amino-3-(5′-O-L-valinyl-β-D-ribofuranosyl)thiazolo[4,5-d]pyrimidine-2,7-dione Dihydrochloride]
Emesis or loose stool [3, 7]: Neg.
GI lesions or irritation [3, 7]: Neg.
Emesis or loose stool [3, 8]: Neg.
GI lesions or irritation [3, 8]: Neg.
Emesis or loose stool [3, 9]: Neg.
GI lesions or irritation [3, 9]: Neg.
Emesis or loose stool [3, 10]: Neg.
GI lesions or irritation [3, 10]: Neg.
GI lesions or irritation ([3]; oral val-isatoribine, 130 mg/kg isatoribine equivalent applied dose): Neg.
GI lesions or irritation ([3]; oral val-isatoribine, 260 mg/kg isatoribine equivalent applied dose): Neg.
GI lesions or irritation ([3]; oral val-isatoribine, 390 mg/kg isatoribine equivalent applied dose): Neg.
GI lesions (result in words) ([3]; orally administered val-isatoribine): No GI lesions were found
interferon in plasma (result in words) ([4]; mice dosed orally with val-isatoribine in bicarbonate, equivalent to 50 mg/kg isatoribine): interferon was readily measurable at 1.0 hour, 1.5 hours, and 2.0 hours after dosing
mice with detectable interferon in plasma, of the mice used [4]: 10 of the 30
increase of the magnitude of both the average and peak interferon response over isatoribine ([4]; mice, oral dosing, Tables 1-3): twofold

melting point: > 180 °C (dec.)
Compound: CN[C@H](C(=O)OC[C@H]1O[C@@H](n2c(=O)sc3c(O)nc(N)nc32)[C@H](O)[C@@H]1O)C(C)C (as salt: hydrochloride) [Compound 11, 5-Amino-3-(5′-O-[α-L-N-methylvalinyl]-β-D-ribofuranosyl)thiazolo[4,5-d]pyrimidine-2,7-dione Hydrochloride]

melting point: > 155 °C (dec.)
Compound: Nc1nc(N)c2sc(=O)n([C@@H]3O[C@H](CO)[C@@H](O)[C@H]3O)c2n1 [Compound 15, 5,7-Diamino-3-β-D-ribofuranosylthiazolo[4,5-d]pyrimidin-2-one]
